Laboratory results: patent US20120316249A1, “LYCOPENE FOR THE TREATMENT FOR METABOLIC DYSFUNCTION” (Cammedica limited, priority 2006, published 2012)
Several values for one entry are separate records, joined by “and”; a condition that tells them apart may be missing. Identical values can stand only once.

Test: Pilot clinical trial of Lipitor-Liprimar: serum lipids in human volunteers
Format: in vivo
Parameters: TG / CH-HDL / CH, mean / TG, mean / CH-LDL, mean / CH-HDL, mean: unit not given here
Experimental: Ten volunteers, 5 males and 5 females, aged 45-55 years old, were selected for this pilot clinical trial. 40 mg of Lipitor-Liprimar was given orally, with food, to each patient daily for two months.
Serum samples were collected from the blood of the patients before the treatment and after two months of treatment.

[1] = Lipitor 40 mg daily, two months
[2] = individual patients, Lipitor 40 mg daily, orally, after 2 months of treatment
[3] = mean of 10 patients, Lipitor 40 mg daily, orally, after 2 months of treatment

SMILES: CC(C)c1c(C(=O)Nc2ccccc2)c(-c2ccccc2)c(-c2ccc(F)cc2)n1CC[C@@H](O)C[C@@H](O)CC(=O)O [Lipitor, Atorvastatin]
- total cholesterol (CH) reduction [1]: 17%
- triglyceride (TG) reduction [1]: 22%
- CH-LDL reduction (Lipitor-Liprimar 40 mg daily, two months): 35%
- CH [2]: 200 mg/dL (2×) and 140 mg/dL and 176 mg/dL and 188 mg/dL and 197 mg/dL and 170 mg/dL and 184 mg/dL and 209 mg/dL and 154 mg/dL
- CH-HDL [2]: 38 and 42 (3×) and 47 (2×) and 39 and 43 (2×) and 49
- CH-LDL [2]: 120 mg/dL (2×) and 145 mg/dL and 110 mg/dL (2×) and 146 mg/dL and 140 mg/dL and 100 mg/dL and 130 mg/dL (2×)
- TG [2]: 120 and 136 and 99 and 98 and 87 and 90 and 133 and 105 and 172 and 96
- CH, mean [3]: 182
- CH-HDL, mean [3]: 43
- CH-LDL, mean [3]: 100
- TG, mean [3]: 113
